# Reference: patent US20140171358A1, “ANTIMICROBIAL COMPOSITIONS COMPRISING DGLA AND NEOMYCIN SULFATE AND METHODS OF USE THEREOF” (Dignity Sciences Limited, priority 2012, published 2014)
# Read-outs that look alike come from different tables or passages of the source.
# Tested on: P. acnes
# Test: agar dilution method: growth index and MIC on P. acnes (single compounds and combinations)
# Assay type: cell-based
# Conditions: for MIC: Cutibacterium acnes; for growth of P. Acnes with the combination compared with 15-OHEPA used alone: in combination with 15-OHEPA; for growth of P. Acnes with the combination compared with DGLA used alone: in combination with DGLA; for growth of P. Acnes with the combination compared with 15-HETrE used alone: in combination with 15-HETrE
# Procedure: Several compounds including fatty acids such as DGLA, 15-OHEPA, and 15-HETrE were tested to determine their capacity to inhibit the growth of P. acnes. In an exemplary method, an agar dilution method was used to determine the minimum inhibitory concentration (MIC) of each tested compound. Briefly, the agar dilution method involved preparing a series of concentrations of each compound (e.g., nicotinamide, benzoyl peroxide, adapalene, metronidazole, DGLA, 15-OHEPA, and 15-HETrE) in a Reinforced Clostridial Agar (RCA) media that facilitates growth of P. acnes under anaerobic conditions. An inoculum of P. acnes was prepared by incubation of P. acnes for approximately seven days at 35-37° C. to achieve a ≧1.0 OD600 inoculum of P. acnes in RCM broth. A portion of this inoculum was then added to the surface of each plate as a 10 μL spot and incubated at 35-37° C. for 72 hours or more. Growth of P. acnes was then observed and compared to control plates in which no compound has been added, and positive inhibition plates prepared with erythromycin. […] The growth of P. acnes in the presence of nicotinamide, benzoyl peroxide, adapalene, metronidazole, DGLA, 15-OHEPA, and 15-HETrE was determined with varying concentrations of the compound (see, Table 2). Next, the MIC was determined as the concentration at which a marked reduction (+) occurs in the appearance of growth on the test plate (as per Clinical and Laboratory Standards Institute M11-A7). The compounds tested singly in Example 1 were tested in combination with one another to determine the capacity of the combination to inhibit the growth of P. acnes. In an exemplary method, the MIC was determined for each of the combination as described in Example 1. Briefly, test combinations included DGLA with nicotinamide, benzoyl peroxide, adapalene, or metronidazole; 15-HETrE with nicotinamide, benzoyl peroxide, adapalene, or metronidazole; and 15-OHEPA with nicotinamide, benzoyl peroxide, adapalene, or metronidazole. The tables below show the growth of P. acnes in the presence of 0.4 or 1.0 mg/mL DGLA with varying concentrations of nicotinamide, benzoyl peroxide, adapalene, or metronidazole (Table 3); the growth of P. acnes in the presence of 0.01 or 0.05 mg/mL 15-HETrE with varying concentrations of nicotinamide, benzoyl peroxide, adapalene, or metronidazole (Table 5); and the growth of P. acnes in the presence of 0.5 or 0.1 mg/mL 15-OHEPA with varying concentrations of nicotinamide, benzoyl peroxide, adapalene, or metronidazole (Table 7).
# [1] = read-out: MIC (mg/mL) with 0.01 mg/mL 15-HETrE spike
# [2] = read-out: MIC (mg/mL) with 0.05 mg/mL 15-OHEPA spike
# [3] = with 0.05 mg/mL 15-HETrE (inhibitory concentration), read-out: MIC (mg/mL) with 0.05 mg/mL 15-HETrE spike
# [4] = with 0.1 mg/mL 15-OHEPA (inhibitory concentration), read-out: MIC (mg/mL) with 0.1 mg/mL 15-OHEPA spike
# [5] = with 0.4 mg/mL dGLA (Sigma), read-out: MIC (mg/mL) with 0.4 mg/mL dGLA spike
# [6] = with 1.0 mg/mL dGLA (Cayman), read-out: MIC (mg/mL) with 1.0 mg/mL dGLA spike
SMILES,MIC [1] [mg/mL],MIC [2] [mg/mL],MIC [3] [mg/mL],MIC [4] [mg/mL],MIC [5] [mg/mL],MIC [6] [mg/mL],growth of P. Acnes with the combination compared with 15-OHEPA used alone,growth of P. Acnes with the combination compared with DGLA used alone,"MIC (compound alone, read-out: MIC (mg/mL) as per P-11-0007 or P-11-0008 Addendum A) [mg/mL]",growth of P. Acnes with the combination compared with 15-HETrE used alone
COc1ccc(-c2ccc3cc(C(=O)O)ccc3c2)cc1C12CC3CC(CC(C3)C1)C2 [Adapalene],0.6 to 0.7,> 0.8,< 0.2,< 0.2,> 0.6,> 0.6,did not reduce the growth of P. Acnes below that of 15 OHEPA used alone,did not reduce the growth of P. Acnes below that of DGLA used alone,,
O=C(OOC(=O)c1ccccc1)c1ccccc1 [Benzoyl Peroxide],0.6 to 0.8,0.4 to 0.6,< 0.2,< 0.2,0.2 to 0.4,0.2 to 0.4,,,0.6 to 0.8,did not reduce the growth of P. Acnes below that of 15-HETrE used alone
Cc1ncc([N+](=O)[O-])n1CCO [Metronidazole],> 1,> 1,< 0.2,< 0.2,> 1,> 1,did not reduce the growth of P. Acnes below that of 15 OHEPA used alone,did not reduce the growth of P. Acnes below that of DGLA used alone,,did not reduce the growth of P. Acnes below that of 15-HETrE used alone
NC(=O)c1cccnc1 [Nicotinamide],10 to 15,10 to 15,< 1,< 1,10 to 15,10 to 15,did not reduce the growth of P. Acnes below that of 15 OHEPA used alone,did not reduce the growth of P. Acnes below that of DGLA used alone,,did not reduce the growth of P. Acnes below that of 15-HETrE used alone
